Test system: Transplanted paddy rice plant
Experiment: Biological Test 1 (treatment on the 3rd day after transplantation): chemical injury to paddy rice
Assay type: in vivo
Design: scale not given here
Details: Treatment performed 3 days after transplantation
Procedure: (1) Preparation of Herbicide
Talc (57 parts by weight) and bentonite (40 parts by weight), both serving as carriers, and sodium alkylbenzenesulfate (3 parts by weight) serving as a surfactant were homogeneously ground and mixed to thereby obtain a carrier for water-dispersible powder.
Subsequently, to the water-dispersible powder (90 parts by weight), the triketone derivative (compound No. A-1) produced in Example I-1 (10 parts by weight) was added, and the resultant mixture was homogeneously ground and mixed to thereby obtain a herbicide.
(i) Biological Test 1 (Soaking in Water/Treatment on the 3rd Day After Transplantation)
A Wagner pot (1/2000 are) was filled with paddy soil, and seeds of barnyard grass were planted on the surface layer of the soil, and further, rice seedlings grown to the 2.5-leaf stage were transplanted.
Subsequently, water was poured in the pot to a height of 3 cm above the soil surface, and placed in a greenhouse where the temperature was maintained at 20-25° C., to thereby grow the plant under suitable conditions.
On the 3rd day after transplantation, the herbicide prepared in (1) above was applied to the plant in a predetermined amount. On the 30th day after treatment with the herbicide, weed-killing ratio, herbicidal effect, and extent of chemical injury to paddy rice were examined.
In Biological tests 1 and 2, herbicidal effect and extent of chemical injury were evaluated according to the below-described standards.
3) Chemical Injury to Paddy Rice
Chemical injury to paddy rice was evaluated according to the following criteria.

[1] = dose 100 g/ha, examined on the 30th day after treatment
[2] = dose 200 g/ha, examined on the 30th day after treatment

Row | Compound | Chemical injury, Transplanted paddy rice plant (dose 100 g/ha) | Chemical injury, Transplanted paddy rice plant (dose 200 g/ha) | Chemical injury, Transplanted paddy rice plant [1] | Chemical injury, Transplanted paddy rice plant [2]
1 | CON(C)C1=C(C(=O)c2ccc3c(c2Cl)CCS3(=O)=O)C(=O)CCC1 [B-12, 4-chloro-5-[3-(N-methoxymethyl)amino-1-oxocyclohexan-2-yl]carbonyl-2,3-dihydrobenzothiophene-1,1-dioxide] | 0 | 1 |  | 
2 | O=C1CCCC(S(=O)(=O)Cc2ccccc2)=C1C(=O)c1ccc2c(c1Cl)CCS2(=O)=O [B-40] | 0 | 0 |  | 
3 | Cc1cccc(SC2=C(C(=O)c3ccc4c(c3Cl)CCS4(=O)=O)C(=O)CCC2)c1 [B-15, 4-chloro-5-[3-(3-methylphenyl)thio-1-oxocyclohexan-2-yl]carbonyl-2,3-dihydrobenzothiophene-1,1-dioxide] | 0 | 0 |  | 
4 | CC1CCC(O)=C(C(=O)c2ccc3c(c2Cl)CCS3(=O)=O)C1=O (stereo not drawn) [A-7, 4-chloro-5-(4-methyl-1,3-dioxocyclohexan-2-yl)carbonyl-2,3-dihydrobenzothiophene-1,1-dioxide] |  |  | 1 | 2
5 | O=C1CCCC(Cl)=C1C(=O)c1ccc2c(c1Cl)CCS2(=O)=O [B-1] | 0 | 0 |  | 
6 | Cc1c(C(=O)C2=C(S(=O)(=O)c3ccc(Cl)cc3)CCCC2=O)ccc2c1C(=O)C(C)(C)CS2(=O)=O [B-65] | 3 | 4 |  | 
7 | O=C1CCCC(Sc2ccccc2)=C1C(=O)c1ccc2c(c1Cl)CCS2(=O)=O [B-3] | 0 | 0 |  | 
8 | Cc1cc(C(=O)C2=C(O)CCCC2=O)c(C)c2c1S(=O)(=O)CC2 [A-4, 4,7-dimethyl-5-(1,3-dioxocyclohexan-2-yl)carbonyl-2,3-dihydrobenzothiophene-1,1-dioxide] |  |  | 0 | 1
9 | CC1Cc2c(ccc(C(=O)C3=C(O)CCCC3=O)c2Cl)S1(=O)=O (stereo not drawn) [A-17, 4-chloro-2-methyl-5-(1,3-dioxocyclohexan-2-yl)carbonyl-2,3-dihydrobenzothiophene-1,1-dioxide] |  |  | 0 | 1
10 | CC(C)c1ccccc1SC1=C(C(=O)c2ccc3c(c2Cl)CCS3(=O)=O)C(=O)CCC1 [B-18] | 0 | 0 |  | 
11 | CC(C)c1ccccc1S(=O)(=O)C1=C(C(=O)c2ccc3c(c2Cl)CCS3(=O)=O)C(=O)CCC1 [B-36] | 0 | 0 |  | 
12 | CCCS(=O)(=O)C1=C(C(=O)c2cc(C)c3c(c2C)/C(=N/OC)CCS3(=O)=O)C(=O)CCC1 [B-62, 4-methoxyimino-5,8-dimethyl-6-[3-(3-propyl)sulfonyl-1-oxocyclohexan-2-yl]carbonylthiochroman-1,1-1,1-dioxide] | 0 | 0 |  | 
13 | C=CCSC1=C(C(=O)c2ccc3c(c2Cl)CCS3(=O)=O)C(=O)CCC1 [B-22, 4-chloro-5-[3-(3-propenyl)thio-1-oxocyclohexan-2-yl]carbonyl-2,3-dihydrobenzothiophene-1,1-dioxide] | 0 | 0 |  | 
14 | CCS(=O)(=O)C1=C(C(=O)c2ccc3c(c2Cl)CCS3(=O)=O)C(=O)CCC1 [B-27] | 0 | 0 |  | 
15 | Cc1cccc(S(=O)(=O)C2=C(C(=O)c3ccc4c(c3Cl)CCS4(=O)=O)C(=O)CCC2)c1 [B-33] | 0 | 0 |  | 
16 | O=C1CCCC(Sc2ccc(Br)cc2)=C1C(=O)c1ccc2c(c1Cl)CCS2(=O)=O [B-21] | 0 | 0 |  | 
17 | CO/N=C1\CCS(=O)(=O)c2ccc(C(=O)C3=C(S(=O)(=O)c4ccccc4)CCCC3=O)c(C)c21 [B-75] | 0 | 1 |  | 
18 | CS(=O)(=O)C1=C(C(=O)c2ccc3c(c2Cl)CCS3(=O)=O)C(=O)CCC1 [B-24] | 0 | 0 |  | 
19 | CO/N=C1\CCS(=O)(=O)c2c(C)cc(C(=O)C3=C(Nc4ccc(C)cc4)CCCC3=O)c(C)c21 [B-58, 4-methoxyimino-5,8-dimethyl-6-[3-(4-methylphenyl)amino-1-oxocyclohexan-2-yl]carbonylthiochroman-1,1-1,1-dioxide] | 0 | 0 |  | 
20 | O=C1CCCC(S(=O)(=O)c2ccc(O)cc2)=C1C(=O)c1ccc2c(c1Cl)CCS2(=O)=O [B-43] | 0 | 0 |  | 
21 | CSc1c(C(=O)C2=C(O)CCCC2=O)ccc2c1CCS2(=O)=O [A-6, 4-methylthio-5-(1,3-dioxocyclohexan-2-yl)carbonyl-2,3-dihydrobenzothiophene-1,1-dioxide] |  |  | 1 | 3
22 | CC1CC(C)C(O)=C(C(=O)c2ccc3c(c2Cl)CCS3(=O)=O)C1=O (stereo not drawn) [A-14, 4-chloro-5-(4,6-dimethyl-1,3-dioxocyclohexan-2-yl)carbonyl-2,3-dihydrobenzothiophene-1,1-dioxide] |  |  | 1 | 2
23 | CC1CC(=O)C(C(=O)c2ccc3c(c2Cl)CCS3(=O)=O)=C(Cl)C1 (stereo not drawn) [B-25] | 0 | 1 |  | 
24 | O=C1CCCC(Sc2ccccc2Cl)=C1C(=O)c1ccc2c(c1Cl)CCS2(=O)=O [B-17] | 0 | 0 |  | 
25 | O=C1CCCC([O-])=C1C(=O)c1ccc2c(c1Cl)CCS2(=O)=O.[Na+] [A-19, Sodium Salt of 4-chloro-5-(1,3-dioxocyclohexan-2-yl)carbonyl-2,3-dihydrobenzothiophene-1,1-dioxide] |  |  | 0 | 1
26 | Cc1ccccc1SC1=C(C(=O)c2ccc3c(c2Cl)CCS3(=O)=O)C(=O)CCC1 [B-16] | 0 | 0 |  | 
27 | CO/N=C1\CCS(=O)(=O)c2ccc(C(=O)C3=C(Cl)CCCC3=O)c(C)c21 [B-72] | 0 | 0 |  | 
28 | Cc1cc(C(=O)C2=C(Sc3ccccc3)CCCC2=O)c(Cl)c2c1S(=O)(=O)CC2 [B-5] | 0 | 0 |  | 
29 | CS(=O)(=O)C1=C(C(=O)c2ccc3c(c2Cl)CCCS3(=O)=O)C(=O)CCC1 [B-80] | 0 | 0 |  | 
30 | Cc1ccc(SC2=C(C(=O)c3ccc4c(c3Cl)CCS4(=O)=O)C(=O)CCC2)cc1 [B-14, 4-chloro-5-[3-(4-methylphenyl)thio-1-oxocyclohexan-2-yl]carbonyl-2,3-dihydrobenzothiophene-1,1-dioxide] | 0 | 0 |  | 

— US20040002425A1, “Triketone derivatives and herbicides” (Idemitsu Kosan Co., Ltd., priority 1998, published 2004)
